Test results taken from patent US7964584B2, “Method of treating or preventing osteoporosis comprising administering to a patient in need thereof an effective amount of pharmaceutical composition comprising benzamidine derivatives or their salts, and alendronic acid or its salt” (Dong Wha Pharmaceutical Co., Ltd., priority 2008, dated 2011).

Test system: osteoclast differentiation (co-culture of bone marrow cells and osteoblasts)
Test: Osteoclast differentiation via co-culture of bone marrow cells and osteoblasts, count of TRAP(+) MNCs
Assay type: cell-based, mice
Settings: individual treatment, 7 days culture; for relative number of TRAP(+) MNCs (mature osteoclasts with 6 or more nuclei), control group = 100%: n=4
Protocol: The osteoclast differentiation was induced by co-culture system between bone marrow cells and […] inhibitory effect of the drug on osteoclast differentiation was evaluated by treatment of single or combination formulation. […] Cells were removed from the bone marrow cells, followed by centrifugation. After the bone marrow cells were suspended in α-MEM medium supplemented with 10% FBS, and the numbers of the eukaryotic cells in the harvested bone marrow cells were counted and then immediately used for a co-culture system. The mouse calvaria were aseptically isolated from 1 2 day-old neonatal ICR mice, and the […], primary osteoblasts were isolated by sequential treatment with an enzyme solution of 0.2% collagenase. The isolated […] centrifuged, resuspended with α-MEM containing 10% FBS and cultured until confluent. Then, these cells were diluted to a desired cell number, and used for the experiment. The bone marrow cells (1×10^5 cells/well) and osteoblasts (3,000 cells/well) prepared in the above were plated in a 96-well plate using α-MEM medium supplemented with 10% FBS. At this time, differentiation factors, 1α,25-dihydroxyvitamin D3 (10^-8 M, hereinbelow, referred to as vitamin D3) and dexamethasone (10^-8 M), were co-added to the osteoclastic medium. The medium was replaced with fresh media containing the differentiation factors every 2 to 3 days. After 7 days, when multinucleated osteoclasts were observed, the medium was removed from the wells, and then the cells were fixed with PBS containing 10% formalin. An index of osteoclast formation was determined by counting number of Tartrate-Resistant Acid Phosphatase-positive multinucleated osteoclasts (herein below, referred to as TRAP(+) MNCs). The TRAP staining solution was contained naphtol AS-MX phosphate(pH5.0)as a substrate, Fast Red violet LB as a coloring agent and 50 mM tartaric acid and stored at a refrigerator until use. The number of TRAP(+) MNCs containing more than 6-7 or more nuclei were counted under a microscope. […] All experiments were performed using the osteoclastic media containing vitamin D3 and dexamethasone. […] Sodium alendronate hydrate was dissolved in purified water at a concentration of 0.2 mM, and then diluted 1,000 fold with the osteoclastic media to a final concentration of 0.2 μM. In this connection, a control group was maintained in 0.1% DMSO. Each experiment was performed by individual or combination treatment, as follows. […] The number of TRAP(+) MNCs with 6 or more nuclei were counted under a microscope. The results were expressed as a percentage of the relative number of mature osteoclast observed in each experimental group, when the number of mature osteoclast in the control group (solvent only) was regarded as 100%. […]

Row | SMILES | relative number of TRAP(+) MNCs (mature osteoclasts with 6 or more nuclei), control group = 100% (0.1 μM) | relative number of osteoclast, control group = 100% (0.3 μM) | relative number of osteoclast, control group = 100% (0.5 μM) | relative number of TRAP(+) MNCs (mature osteoclasts with 6 or more nuclei), control group = 100% (0.2 μM)
1 | CS(=O)(=O)O.CS(=O)(=O)O.Cc1nc(-c2ccc(OCCCCCOc3ccc(C(=N)NO)cc3)cc2)c(C(C)C)s1 [N-hydroxy-4-{5-[4-(5-isopropyl-2-methyl-1,3-thiazol-4-yl)phenoxy]pentoxy}benzamidine dimethanesulfonate] | significant reduction | 52.4% | 34.5% | 
2 | NCCCC(O)(P(=O)(O)O)P(=O)(O)O [sodium alendronate, reference compound] |  |  |  | 80.6% and significantly reduced
